According to patent publication US20240165097A1, “PHARMACEUTICAL COMPOSITION FOR THE TREATMENT OF ALZHEIMER'S DISEASE OR DEMENTIA” (Heptares Therapeutics Limited, priority 2021, published 2024):
Several values for one entry are separate records, joined by “and”; a condition that tells them apart may be missing. Identical values can stand only once. Like-named read-outs stand apart in the source and are kept apart here.

Tests used:
[1] = test system: healthy elderly subjects
[2] = in humans; cited from earlier work
[3] = 15 mg HTL0018318 + donepezil vs Placebo
[4] = 15 mg HTL0018318 alone vs 15 mg HTL0018318 donepezil
[5] = 15 mg HTL0018318 alone vs Placebo
[6] = 15 mg and 25 mg, in combination with or without donepezil
[7] = 15 mg in combination with donepezil
[8] = 15 mg in combination with donepezil (5 days)
[9] = 15 mg without donepezil (5 days)
[10] = 25 mg HTL0018318 + donepezil vs Placebo
[11] = 25 mg HTL0018318 alone vs 25 mg HTL0018318 donepezil
[12] = 25 mg HTL0018318 alone vs Placebo
[13] = 25 mg in combination with donepezil
[14] = 25 mg in combination with donepezil (5 days)
[15] = 25 mg without donepezil (5 days)
[16] = 25 mg without donepezil vs in combination with donepezil

With CCOC(=O)N1C2CCC1CC(N1CCC3(CC1)CNC(=O)C3)C2 (stereo not drawn) [HTL0018318, ethyl 3-(3-oxo-2,8-diazaspiro[4.5]dec-8-yl)-8-azabicyclo[3.2.1]octane-8-carboxylate] the “FEV1/FVC, contrast estimate” value [1, 3] was 1.052%, the “FEV 1 second, contrast estimate” value [1, 3] was 0.043 L and the “FVC, contrast estimate” value [1, 3] was 0.03719 L. For the same compound, the “LSEQ: Awake following sleep, contrast estimate” value (from here on “LSEQ: Awake following sleep”) [1, 3] was 3.50, the “LSEQ: Behaviour after wake, contrast estimate” value (from here on “LSEQ: Behaviour after wake”) [1, 3] was 1.51 and the “LSEQ: Getting to sleep, contrast estimate” value (“LSEQ: Getting to sleep” for short) [1, 3] was 1.59. For the same compound, the “LSEQ: Quality of sleep, contrast estimate” value (“LSEQ: Quality of sleep” for short) [1, 3] was 2.42, the “PEF, contrast estimate” value [1, 3] was 0.339 L/s and the “Saliva, contrast estimate” value [1, 3] was 0.707 g. For the same compound, the “VAS Alertness, contrast estimate” value [1, 3] was −0.70 mm, the “VAS Calmness, contrast estimate” value [1, 3] was −2.37 mm and the “VAS Mood, contrast estimate” value [1, 3] was −0.24 mm. For the same compound, the “VAS Nausea, contrast estimate” value [1, 3] was −0.08 log(mm), the “FEV1/FVC, contrast estimate” value [1, 4] was −0.886% and the “FEV 1 second, contrast estimate” value [1, 4] was 0.127 L. The “FVC, contrast estimate” value [1, 4] was 0.1702 L, the “LSEQ: Awake following sleep” value [1, 4] was −1.93 and the “LSEQ: Behaviour after wake” value [1, 4] was −0.85. The “LSEQ: Getting to sleep” value [1, 4] was −0.79, the “LSEQ: Quality of sleep” value [1, 4] was −0.26 and the “PEF, contrast estimate” value [1, 4] was -0.343 L/s. For the same compound, the “Saliva, contrast estimate” value [1, 4] was -0.554 g, the “VAS Alertness, contrast estimate” value [1, 4] was −0.46 mm and the “VAS Calmness, contrast estimate” value [1, 4] was −0.20 mm. The “VAS Mood, contrast estimate” value [1, 4] was −0.03 mm, the “VAS Nausea, contrast estimate” value [1, 4] was −0.01 log(mm) and the “FEV1/FVC, contrast estimate” value [1, 5] was −0.327%. The “FEV 1 second, contrast estimate” value [1, 5] was 0.153 L, the “FVC, contrast estimate” value [1, 5] was 0.2035 L and the “LSEQ: Awake following sleep” value [1, 5] was −1.72. The “LSEQ: Behaviour after wake” value [1, 5] was −1.00, the “LSEQ: Getting to sleep” value [1, 5] was 0.82 and the “LSEQ: Quality of sleep” value [1, 5] was −5.14. For the same compound, the “PEF, contrast estimate” value [1, 5] was 0.282 L/s, the “Saliva, contrast estimate” value [1, 5] was 0.498 g and the “VAS Alertness, contrast estimate” value [1, 5] was −1.96 mm. For the same compound, the “VAS Calmness, contrast estimate” value [1, 5] was −3.17 mm, the “VAS Mood, contrast estimate” value [1, 5] was −2.93 mm and the “VAS Nausea, contrast estimate” value [1, 5] was −0.06 log(mm). For the same compound, the “number of AEs in gastrointestinal disorders class, viral gastroenteritis AEs excluded” value (“number of AEs” for short) ([1]; 15 mg alone) was 1 AE, the “supine pulse rate compared with placebo” value [1, 6] was “no significant effects” and the “supine systolic blood pressure compared with placebo” value [1, 6] was “no significant effects”. For the same compound, the “cholinergic AEs, percentage of subjects” value [1, 7] was 13%, the “nausea reports, viral gastroenteritis AEs excluded” value [1, 7] was “one subject” and the supine pulse rate [1, 7] was 64 bpm. For the same compound, the “All AEs, percentage of subjects” value [1, 8] was 50% ( 4/8 subjects), the “Gastrointestinal disorders, percentage of subjects” value [1, 8] was 13% (⅛ subjects) and the “Neurological disorders, percentage of subjects” value [1, 8] was 13% (⅛ subjects). The “supine pulse rate, mean difference” value ([1]; 15 mg in combination with donepezil vs without donepezil) was 3.3 bpm, the “cholinergic AEs, percentage of subjects” value ([1]; 15 mg without donepezil) was 0% and the supine pulse rate ([1]; 15 mg without donepezil) was 67 bpm. The “All AEs, percentage of subjects” value [1, 9] was 43% ( 3/7 subjects), the “Gastrointestinal disorders, percentage of subjects” value [1, 9] was 14% ( 1/7 subjects) and the “Neurological disorders, percentage of subjects” value [1, 9] was 14% ( 1/7 subjects). The delta pulse rate ([1]; 15 mg without donepezil vs in combination with donepezil) was “no significant changes”, the “number of AEs” value ([1]; 15 mg+donepezil) was 3 AEs and the “FEV1/FVC, contrast estimate” value [1, 10] was −0.399%. For the same compound, the “FEV 1 second, contrast estimate” value [1, 10] was 0.085 L, the “FVC, contrast estimate” value [1, 10] was 0.1784 L and the “LSEQ: Awake following sleep” value [1, 10] was 0.52. For the same compound, the “LSEQ: Behaviour after wake” value [1, 10] was −0.80, the “LSEQ: Getting to sleep” value [1, 10] was −0.74 and the “LSEQ: Quality of sleep” value [1, 10] was −1.37. The “PEF, contrast estimate” value [1, 10] was 0.273 L/s, the “Saliva, contrast estimate” value [1, 10] was 0.910 g and the “VAS Alertness, contrast estimate” value [1, 10] was −1.49 mm. The “VAS Calmness, contrast estimate” value [1, 10] was −1.67 mm, the “VAS Mood, contrast estimate” value [1, 10] was −0.38 mm and the “VAS Nausea, contrast estimate” value [1, 10] was −0.04 log(mm). For the same compound, the “FEV1/FVC, contrast estimate” value [1, 11] was 2.491%, the “FEV 1 second, contrast estimate” value [1, 11] was 0.008 L and the “FVC, contrast estimate” value [1, 11] was “-.11255 L”. The “LSEQ: Awake following sleep” value [1, 11] was 0.93, the “LSEQ: Behaviour after wake” value [1, 11] was 1.86 and the “LSEQ: Getting to sleep” value [1, 11] was 1.72. The “LSEQ: Quality of sleep” value [1, 11] was 6.49, the “PEF, contrast estimate” value [1, 11] was 0.047 L/s and the “Saliva, contrast estimate” value [1, 11] was -0.349 g. For the same compound, the “VAS Alertness, contrast estimate” value [1, 11] was 0.66 mm, the “VAS Calmness, contrast estimate” value [1, 11] was −0.07 mm and the “VAS Mood, contrast estimate” value [1, 11] was 0.55 mm. The “VAS Nausea, contrast estimate” value [1, 11] was −0.03 log(mm), the “FEV1/FVC, contrast estimate” value [1, 12] was 1.600% and the “FEV 1 second, contrast estimate” value [1, 12] was 0.077 L. The “FVC, contrast estimate” value [1, 12] was 0.06192 L, the “LSEQ: Awake following sleep” value [1, 12] was −1.85 and the “LSEQ: Behaviour after wake” value [1, 12] was −0.60. For the same compound, the “LSEQ: Getting to sleep” value [1, 12] was 1.01, the “LSEQ: Quality of sleep” value [1, 12] was −2.18 and the “PEF, contrast estimate” value [1, 12] was 0.606 L/s. The “Saliva, contrast estimate” value [1, 12] was 0.906 g, the “VAS Alertness, contrast estimate” value [1, 12] was −1.63 mm and the “VAS Calmness, contrast estimate” value [1, 12] was −2.34 mm. The “VAS Mood, contrast estimate” value [1, 12] was −2.49 mm, the “VAS Nausea, contrast estimate” value [1, 12] was −0.05 log(mm) and the “number of AEs” value ([1]; 25 mg alone) was 3 AEs. The “cholinergic AEs, percentage of subjects” value [1, 13] was 69%, the “delta pulse rate (standing from supine)” value [1, 13] was 12 bpm and 10 bpm and the supine pulse rate [1, 13] was 64 bpm. For the same compound, the “supine systolic blood pressure” value [1, 13] was 120 mm Hg, the “All AEs, percentage of subjects” value [1, 14] was 88% ( 14/16 subjects) and the “Gastrointestinal disorders, percentage of subjects” value [1, 14] was 25% ( 4/16 subjects). For the same compound, the “Neurological disorders, percentage of subjects” value [1, 14] was 38% ( 6/16 subjects), the “delta pulse rate, mean difference” value ([1]; 25 mg in combination with donepezil vs placebo in combination with donepezil) was −3.4 bpm and the “supine pulse rate, mean difference” value ([1]; 25 mg in combination with donepezil vs without donepezil) was 1.5 bpm. For the same compound, the “cholinergic AEs, percentage of subjects” value ([1]; 25 mg without donepezil) was 67%, the “delta pulse rate (standing from supine)” value ([1]; 25 mg without donepezil) was 10 bpm and 12 bpm and the supine pulse rate ([1]; 25 mg without donepezil) was 66 bpm. For the same compound, the “supine systolic blood pressure” value ([1]; 25 mg without donepezil) was 118 mm Hg, the “All AEs, percentage of subjects” value [1, 15] was 92% ( 11/12 subjects) and the “Gastrointestinal disorders, percentage of subjects” value [1, 15] was 17% ( 2/12 subjects). The “Neurological disorders, percentage of subjects” value [1, 15] was 50% ( 6/12 subjects), the “delta pulse rate, mean difference” value [1, 16] was −1.6 bpm and the “supine systolic blood pressure, mean difference” value [1, 16] was 1.6 mm Hg. For the same compound, the “delta pulse rate, mean difference” value ([1]; 25 mg without donepezil vs placebo without donepezil) was −3.7 bpm, the “number of AEs” value ([1]; 25 mg+donepezil) was 4 AEs and the “laboratory tests, ECG assessment and 24-hour Holter ECG” value ([1]; 15 or 25 mg, with and without donepezil) was “No clinically significant changes”. The “standing systolic BP, supine and standing diastolic BP, standing-supine BP, standing pulse rate” value ([1]; HTL0018318 in combination with donepezil vs HTL0018318 alone) was “no significant changes”, the “VAS alertness, calmness, mood, and nausea” value ([1]; HTL0018318 in combination with donepezil vs without donepezil) was “no statistically significant effects” and the “intensity and seriousness of AEs” value ([1]; all treatments of the study) was “mild or moderate in intensity and there were no serious adverse events”. The tolerability ([1]; multiple doses in combination with donepezil) was “generally well tolerated”, the Tmax [2] was 1 to 2 h and the half-life [2] was “approximately 16 hours”.
